Test results from patent US8362012B2, “Benzoxazine benzimidazole derivative, a pharmaceutical composition comprising the same, and a use thereof” (Daewoong Pharmaceutical Co., Ltd., priority 2008, dated 2013).

What was measured:
[1] = molecular target: T1, human vanilloid-1 (hVR-1) in hVR-1-HEK293 cell line (Homo sapiens, UniProt Q8NER1); assay: Inhibitory effect on calcium influx via a vanilloid receptor (capsaicin-stimulated, Fluo-3/AM); format: cell-based; details: hVR-1-HEK293 cells, 1 μM of capsaicin, compounds 0.015˜2000 nM; read-out: I.A. (inhibitory activity), IC50 on intracellular calcium influx
T1 construct: expressed in transfected cells; host or cells: HEK293 Tet-on strain, doxycycline-induced
Method in brief: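 Doxycycline-induced (1 μg/mL, 2 days) hVR-1-HEK293 cells loaded with Fluo-3/AM for 90 min at 37° C, then stimulated with 1 μM capsaicin. Calcium influx expressed as background-corrected fluorescence relative to positive control, analysed by Hill equation and graded by activity criteria.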

ICR male mice = assay: Phenyl-p-quinone (PBQ)-induced writhing experiment using mice; format: in vivo; details: orally administered, PBQ (0.02%) intraperitoneally after 1 hour, writhing counted for 10 min
Experimental: In order to evaluate the effect on pain of the compounds prepared in the Examples, behaviors such as twisting or writhing of body resulted from pain were verified by the phenyl-p-quinone (PBQ)-induced writhing experiment using mice. 5 week-old ICR male mice were used as experimental animals and PBQ (0.02%), as a chemical stimulator. The suspensions of 20 mg of the compounds of the present invention and an excipient such as Na—CMC (sodium carboxymethyl cellulose) in 10 mL of saline were used as test compounds. The test compounds were orally administered to the mice and after 1 hour, PBQ was intraperitoneally administrated in an amount of 10 mL per kg of body weight. Also, as a control group, equivalent amounts of BCTC were administered. The writhing number of each mouse was measured for 10 min starting from 5 min after the administration, and the analgesic effect was verified by counting the reduced number compared to the control group administered with only excipient and calculating the % inhibitory rate according to the following Formula 2. % inhibition rate=(writhing # of control group−writhing # of test group)/writhing # of control group×100 [Formula 2]

T1 sequence (Q8NER1 whole entry): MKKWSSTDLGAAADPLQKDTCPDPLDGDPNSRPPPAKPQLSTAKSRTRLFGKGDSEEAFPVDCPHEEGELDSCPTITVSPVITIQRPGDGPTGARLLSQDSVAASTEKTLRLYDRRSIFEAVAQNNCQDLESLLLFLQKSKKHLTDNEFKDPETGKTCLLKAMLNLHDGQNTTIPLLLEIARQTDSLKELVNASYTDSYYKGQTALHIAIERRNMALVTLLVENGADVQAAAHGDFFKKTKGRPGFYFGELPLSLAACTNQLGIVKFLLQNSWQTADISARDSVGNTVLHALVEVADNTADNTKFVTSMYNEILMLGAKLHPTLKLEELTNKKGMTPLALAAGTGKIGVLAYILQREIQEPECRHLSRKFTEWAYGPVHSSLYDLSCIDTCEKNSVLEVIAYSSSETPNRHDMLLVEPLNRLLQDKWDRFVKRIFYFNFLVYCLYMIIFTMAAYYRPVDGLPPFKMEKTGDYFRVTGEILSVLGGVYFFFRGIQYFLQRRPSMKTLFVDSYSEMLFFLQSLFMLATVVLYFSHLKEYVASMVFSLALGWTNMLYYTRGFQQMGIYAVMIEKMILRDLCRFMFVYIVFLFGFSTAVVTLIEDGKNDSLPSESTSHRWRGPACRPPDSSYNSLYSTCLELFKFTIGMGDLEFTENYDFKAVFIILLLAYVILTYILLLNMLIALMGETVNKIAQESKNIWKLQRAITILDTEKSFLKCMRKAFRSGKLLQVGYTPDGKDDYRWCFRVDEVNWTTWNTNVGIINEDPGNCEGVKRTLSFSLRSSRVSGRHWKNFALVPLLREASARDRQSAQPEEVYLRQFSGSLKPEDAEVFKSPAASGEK

IC50 [1] [nM]	Structure (SMILES)	I.A. (inhibitory activity), % inhibition rate of writhing (ICR male mice)
< 20	Cc1ccc(N2c3cccc(-c4nc5c(Br)cc(C(F)(F)F)cc5[nH]4)c3OC[C@@H]2CO)nc1 [Example 41, [(S)-8-(4-bromo-6-trifluoromethyl-1H-benzimidazol-2-yl)-4-(5-methyl-pyridin-2-yl)-3,4-dihydro-2H-benzo[1,4]oxazin-3-yl]-methanol]	++ (20˜50%)
< 20	CCc1ccc(N2c3cccc(-c4nc5ccc(C#N)cc5[nH]4)c3OC[C@@H]2CO)nc1 [Example 87, 2-[(S)-4-(5-ethyl-pyridin-2-yl)-3-hydroxymethyl-3,4-dihydro-2H-benzo[1,4]oxazin-8-yl]-3H-benzimidazol-5-carbonitrile]	+++ (51-80%)
20 to 100	FC(F)(F)c1ccc2nc(-c3cccc4c3OCCN4c3ccc(Br)cn3)[nH]c2c1 [Example 19, 4-(5-bromo-pyridin-2-yl)-8-(6-trifluoromethyl-1H-benzimidazol-2-yl)-3,4-dihydro-2H-benzo[1,4]oxazine]	++ (20˜50%)
< 20	Cc1ccc(N2c3cccc(-c4nc5ccc(OC(F)(F)F)cc5[nH]4)c3OC[C@@H]2CO)nc1 [Example 47, [(S)-4-(5-methyl-pyridin-2-yl)-8-(6-trifluoromethoxy-1H-benzimidazol-2-yl)-3,4-dihydro-2H-benzo[1,4]oxazin-3-yl]-methanol]	++ (20˜50%)
< 20	COC[C@H]1COc2c(-c3nc4c(Br)cc(C(F)(F)F)cc4[nH]3)cccc2N1c1ccc(C)cn1 [Example 93, (S)-8-(4-bromo-6-trifluoromethyl-1H-benzimidazol-2-yl)-3-methoxymethyl-4-(5-methyl-pyridin-2-yl)-3,4-dihydro-2H-benzo[1,4]oxazine]	++ (20˜50%)
< 20	Cc1ccc(N2c3cccc(-c4nc5c(F)cc(Br)cc5[nH]4)c3OC[C@@H]2CO)nc1 [Example 43, [(S)-8-(6-bromo-4-fluoro-1H-benzimidazol-2-yl)-4-(5-methyl-pyridin-2-yl)-3,4-dihydro-2H-benzo[1,4]oxazin-3-yl]-methanol]	++ (20˜50%)
< 20	Cc1ccc(N2c3cccc(-c4nc5ccccc5[nH]4)c3OC[C@@H]2CO)nc1 [Example 53, [(S)-8-(1H-benzimidazol-2-yl)-4-(5-methyl-pyridin-2-yl)-3,4-dihydro-2H-benzo[1,4]oxazin-3-yl]-methanol]	+ (<20%)

More lines, now with the values behind:

Structure (SMILES)	IC50 [1] [nM]	I.A. (inhibitory activity), % inhibition rate of writhing (ICR male mice)
Cc1ccc(N2c3cccc(-c4nc5cc(Cl)c(Cl)cc5[nH]4)c3OC[C@@H]2CO)nc1 [Example 38, [(S)-8-(5,6-dichloro-1H-benzimidazol-2-yl)-4-(5-methyl-pyridin-2-yl)-3,4-dihydro-2H-benzo[1,4]oxazin-3-yl]-methanol]	< 20	+++ (51-80%)
Cc1ccc(N2c3cccc(-c4nc5ccc(Cl)cc5[nH]4)c3OC[C@@H]2CO)nc1 [Example 37, [(S)-8-(6-chloro-1H-benzimidazol-2-yl)-4-(5-methyl-pyridin-2-yl)-3,4-dihydro-2H-benzo[1,4]oxazin-3-yl]-methanol]	20 to 100	+++ (51-80%)
Cc1ccc(N2c3cccc(-c4nc5cc(F)c(Cl)cc5[nH]4)c3OC[C@@H]2CO)nc1 [Example 45, [(S)-8-(6-chloro-5-fluoro-1H-benzimidazol-2-yl)-4-(5-methyl-pyridin-2-yl)-3,4-dihydro-2H-benzo[1,4]oxazin-3-yl]-methanol]	< 20	+++ (51-80%)
Cc1ccc(N2c3cccc(-c4nc5c(C)cc(Br)cc5[nH]4)c3OC[C@@H]2CO)nc1 [Example 46, [(S)-8-(6-bromo-4-methyl-1H-benzimidazol-2-yl)-4-(5-methyl-pyridin-2-yl)-3,4-dihydro-2H-benzo[1,4]oxazin-3-yl]-methanol]	< 20	++ (20˜50%)
C=Cc1ccc(N2c3cccc(-c4nc5ccc(Br)cc5[nH]4)c3OC[C@@H]2CO)nc1 [Example 60, [(S)-8-(6-bromo-1H-benzimidazol-2-yl)-4-(5-vinyl-pyridin-2-yl)-3,4-dihydro-2H-benzo[1,4]oxazin-3-yl]-methanol]	< 20	+++ (51-80%)
Cc1ccc(N2c3cccc(-c4nc5ccc(Br)cc5[nH]4)c3OC[C@@H]2CO)nc1 [Example 36, [(S)-8-(6-bromo-1H-benzimidazol-2-yl)-4-(5-methyl-pyridin-2-yl)-3,4-dihydro-2H-benzo[1,4]oxazin-3-yl]-methanol]	< 20	+++ (51-80%)
COC[C@H]1COc2c(-c3nc4ccc(C#N)cc4[nH]3)cccc2N1c1ccc(C)cn1 [Example 101, 2-[(S)-3-methoxymethyl-4-(5-methyl-pyridin-2-yl)-3,4-dihydro-2H-benzo[1,4]oxazin-8-yl]-3H-benzimidazol-5-carbonitrile]	20 to 100	+++ (51-80%)
COC[C@H]1COc2c(-c3nc4cc(Cl)c(Cl)cc4[nH]3)cccc2N1c1ccc(C)cn1 [Example 95, (S)-8-(5,6-dichloro-1H-benzimidazol-2-yl)-3-methoxymethyl-4-(5-methyl-pyridin-2-yl)-3,4-dihydro-2H-benzo[1,4]oxazine]	< 20	+++ (51-80%)
Cc1ccc(N2c3cccc(-c4nc5ccc(F)cc5[nH]4)c3OC[C@@H]2CO)nc1 [Example 49, [(S)-8-(6-fluoro-1H-benzimidazol-2-yl)-4-(5-methyl-pyridin-2-yl)-3,4-dihydro-2H-benzo[1,4]oxazin-3-yl]-methanol]	< 20	+++ (51-80%)
FC(F)(F)c1ccc2nc(-c3cccc4c3OCCN4c3ncc(Cl)cc3Cl)[nH]c2c1 [Example 18, 4-(3,5-dichloro-pyridin-2-yl)-8-(6-trifluoromethyl-1H-benzimidazol-2-yl)-3,4-dihydro-2H-benzo[1,4]oxazine]	20 to 100	+ (<20%)
COC[C@H]1COc2c(-c3nc4ccc(Br)cc4[nH]3)cccc2N1c1ccc(C)cn1 [Example 89, (S)-8-(6-bromo-1H-benzimidazol-2-yl)-3-methoxymethyl-4-(5-methyl-pyridin-2-yl)-3,4-dihydro-2H-benzo[1,4]oxazine]	< 20	+++ (51-80%)
COC[C@H]1COc2c(-c3nc4c(Br)cc(Br)cc4[nH]3)cccc2N1c1ccc(C)cn1 [Example 97, (S)-8-(4,6-dibromo-1H-benzimidazol-2-yl)-3-methoxymethyl-4-(5-methyl-pyridin-2-yl)-3,4-dihydro-2H-benzo[1,4]oxazine]	< 20	++ (20˜50%)
C=Cc1ccc(N2c3cccc(-c4nc5ccc(OC(F)(F)F)cc5[nH]4)c3OC[C@@H]2CO)nc1 [Example 67, [(S)-8-(6-trifluoromethoxy-1H-benzimidazol-2-yl)-4-(5-vinyl-pyridin-2-yl)-3,4-dihydro-2H-benzo[1,4]oxazin-3-yl]-methanol]	< 20	+++ (51-80%)
